For 80 molecules, RP-LC retention time results are on record in the METLIN SMRT retention time set (Domingo-Almenara et al. 2019).

The series can be described thus: gradient 5% acetonitrile 3 min, to 50% in 2 min, to 85% in 15 min, held 3 min, 100 µL/min. As to conditions: column: Zorbax Extend-C18 2.1 x 50 mm; eluents: water / acetonitrile, 0.1% formic acid. Put shortly:
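In both positive and negative ionization mode, a quadrupole time-of-flight mass spectrometer coupled to HPLC analyzed pure standards run in mixtures of ~100 molecules. The Zorbax Extend-C18 column (2.1 × 50 mm, 1.8 μm) was operated at 100 μL/min with water and acetonitrile, each containing 0.1% formic acid. The dead volume was 40 μL and the dwell volume 900 μL. Retention time came from adduct peaks that were computationally picked and individually inspected by hand.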
The molecule `O=C(CC1CCN(C(=O)c2cc(F)ccc2F)C1)NC1CC1` (stereo not given) displayed an RP-LC retention time of 630 s.

Molecule `CCc1nnc(NC(=O)CSc2nccn2-c2ccc(F)cc2)s1` showed an RP-LC retention time of 653 s.

`Cc1ccc(NC(=O)Cn2nc(N3CCC(C)CC3)c3ccccc3c2=O)c(C)c1` had an RP-LC retention time of 1160 s.

Consider `CCOC(=O)c1ccccc1NC(=O)CSc1ccc(N2CCCC(C(=O)NC3CC3)C2)nn1` (stereo not given), for which the RP-LC retention time worked out at 680 s.

Regarding `NC(=O)c1nccn1Cc1ccccc1`, the RP-LC retention time stood at 645 s.

Turning to `Cc1noc(C)c1CC(=O)N1CCOc2ccc(N(C)C)cc2C1`, the RP-LC retention time came out at 584 s.

`CCN1C(=O)c2cc(C(=O)N3CCN(c4ccccc4F)CC3)nn2CC1(C)C(=O)NC1CCCC1` (stereo not given) gave an RP-LC retention time of 840 s.

In turn, `O=S(=O)(c1ccccc1F)N1CCc2nc(-c3ccccc3)ncc2C1` returned an RP-LC retention time of 1010 s.

`COCCCNC(=O)c1ccc2c(c1)nc(C)n2-c1ccc(Br)cc1` gave an RP-LC retention time of 629 s.

Turning to `O=C(c1ccc2c(c1)OCO2)N1CC2CN(S(=O)(=O)c3ccc(F)cc3)CC(C1)O2`, the RP-LC retention time was found to be 774 s.

The molecule `O=C(c1csc(-c2cnccn2)n1)N1CCN(c2ccccc2Cl)CC1` displayed an RP-LC retention time of 866 s.

The molecule `CC(=O)Nc1ccc(NC(=O)c2ccc3nc(-c4ccccc4)cn3c2)cc1` registered an RP-LC retention time of 612 s.

`CCN(CC)C(=O)c1ccc2c(c1)N(CC(=O)NC1CCCC1)C(=O)C1CCCCN21` (stereo not given) yielded an RP-LC retention time of 789 s.

In turn, `CCn1c(CC2CCN(C(=O)NCCc3ccccc3)C2)nc2cccnc21` (stereo not given) gave an RP-LC retention time of 588 s.

`CCn1ccc2sc(C)c(C(=O)NCC3CCCCC3)c2c1=O` showed an RP-LC retention time of 884 s.

Consider `CN1C(=O)CO[C@@H](C(=O)Nc2cccc(F)c2)[C@@H]1c1ccccc1`, for which the RP-LC retention time was 782 s.

Regarding `COc1ccccc1C(=O)Nc1c(-c2ccccc2)nc2ccccn12`, the RP-LC retention time was 597 s.

`CC(=O)N1c2ccc(S(=O)(=O)N3CCOCC3)cc2CC1C(=O)N1CCN(c2ccccc2)CC1` (stereo not given) had an RP-LC retention time of 776 s.

`COCCCN1C(=O)CSc2c(c3ccccc3n2C)C1C(=O)NCCCOC(C)C` (stereo not given) showed an RP-LC retention time of 825 s.

Turning to `CC(C)c1nncn1C1CCN(S(=O)(=O)c2cccc(Cl)c2)CC1`, the RP-LC retention time came out at 767 s.

On to `COc1ccccc1-c1nnc(NC(=O)COc2ccccc2)o1`, for which the RP-LC retention time amounted to 707 s.

The molecule `Cc1ccc2ccc3ccc(C)nc3c2n1` yielded an RP-LC retention time of 589 s.

With `COc1ccc(-c2nc(Nc3c(C)n[nH]c3C)sc2C)cc1`, the RP-LC retention time came out at 630 s.

As to `O=C(CCCNC(=O)c1cc(-c2cccs2)[nH]n1)Nc1cccc2cccnc12`, the RP-LC retention time is 697 s.

As for `COc1ccc(C(=O)Nc2cnc(N3CCOCC3)nc2)cc1`, the RP-LC retention time came to 618 s.

As for `O=C(Nc1cc(F)ccc1F)c1c(O)c2cccnc2n(Cc2ccccc2)c1=O`, the RP-LC retention time worked out at 1170 s.

`Cc1ccc(NS(=O)(=O)c2cc3n(c2)CCN(C(C)C)C3=O)cc1` gave an RP-LC retention time of 777 s.

`COc1ccc(-c2noc(-c3ccc(NC(=O)c4cccs4)cc3)n2)cc1` showed an RP-LC retention time of 1140 s.

As to `CCCN1C(=O)COc2ccc(-c3csc(NC(=O)c4ccccc4C)n3)cc21`, the RP-LC retention time came out at 1060 s.

Take `Cc1c(-c2noc(C(=O)NCCN3CCC(C)CC3)n2)oc2ccccc12`: the RP-LC retention time amounted to 706 s.

Molecule `Nc1sc(SCC(=O)Nc2ccc3c(c2)OCO3)nc1-c1ccccc1` displayed an RP-LC retention time of 797 s.

Molecule `Cc1ccc(-n2nc(N3CCCN(S(=O)(=O)c4ccc(Cl)cc4)CC3)ccc2=O)cc1` displayed an RP-LC retention time of 935 s.

As to `CCN1CCN(CCCNC(=O)c2oc3ccc4c(c3c2C)C(O)CC(C)(C)O4)CC1` (stereo not given), the RP-LC retention time was 592 s.

In turn, `NC(=O)C1CCN(C(=O)c2cc3cccnc3n(Cc3ccccc3F)c2=O)CC1` had an RP-LC retention time of 666 s.

Molecule `O=C(Cn1c(=O)oc2ccccc21)N1C[C@@H](CO)[C@H](c2ccccn2)C1` returned an RP-LC retention time of 591 s.

`CCCN1C(=O)COc2ccc(-c3noc(-c4cc(OC)cc(OC)c4)n3)cc21`: the RP-LC retention time worked out at 1240 s.

`CCOC(=O)c1ccccc1NC(=O)Cn1nc2c(Oc3ccccc3)nccn2c1=O` showed an RP-LC retention time of 1000 s.

Molecule `CS(=O)(=O)N1CCC(C(=O)Nc2ccccc2Cl)Oc2ccccc21` (stereo not given) showed an RP-LC retention time of 935 s.

In turn, `CN(CCc1noc(-c2ccc(F)cc2)n1)C(=O)Nc1cc(F)ccc1F` registered an RP-LC retention time of 924 s.

As for `CN1CCCn2nc(C3CCN(C(=O)c4cccc(C(F)(F)F)c4)CC3)cc2C1=O`, the RP-LC retention time stood at 718 s.

The molecule `Cc1cccc(-c2c3c(=O)n(C)c(=O)n(C)c3c3n2CCOC3c2c(C)n(C)c(=O)n(C)c2=O)c1` (stereo not given) came in with an RP-LC retention time of 746 s.

The molecule `Cc1ccc(NC(=O)C2CCCN(c3ncnc4c3nc3n4CCCCC3)C2)cc1Cl` (stereo not given) gave an RP-LC retention time of 958 s.

For the molecule `COc1cc(Nc2c(C(=O)N3CCCC3)cnc3nc(C)ccc23)cc(OC)c1`, the RP-LC retention time is 616 s.

`COCc1nc2ccccc2n1CC(=O)NC1CCCCC1` came in with an RP-LC retention time of 642 s.

`CCc1nn(CC)c(=O)c2cc(S(=O)(=O)N3CCC(Cc4ccccc4)CC3)cn12` displayed an RP-LC retention time of 1140 s.

For the molecule `Cc1ccc(NC(=O)CN2C(=O)CCc3cc(S(=O)(=O)N4CCCCC4C)ccc32)cc1F` (stereo not given), the RP-LC retention time turned out to be 1010 s.

As for `CCn1cc(C)c(C(=O)O)c1CC(=O)NCc1ccco1`, the RP-LC retention time turned out to be 702 s.

As to `COc1ccc(CCc2nc3nccc(-c4ccc(OC)cc4)n3n2)cc1`, the RP-LC retention time worked out at 943 s.

`CCOc1ccc(CNC(=O)c2cnc(N3CCN(C4CCCCC4)CC3)nc2N)cc1` registered an RP-LC retention time of 658 s.

In turn, `CN(C(=O)CSc1nc(-c2ccccc2)no1)c1ccc(F)cc1` came in with an RP-LC retention time of 1020 s.

Regarding `CCOC(=O)c1cccc(NC2=NS(=O)(=O)c3ccccc32)c1`, the RP-LC retention time turned out to be 839 s.

Turning to `COc1c(/C=N/NC(N)=O)c(OC)c(OC)c2c1CCO2`, the RP-LC retention time was determined as 1080 s.

`COc1ccc(C2(C(=O)N3CCC4(CC3)N(CC3CC3)C(=O)CS4=O)CC2)cc1` (stereo not given) registered an RP-LC retention time of 677 s.

As to `Cc1ccc(F)cc1NS(=O)(=O)c1cc2c(s1)CCN(C(=O)C1CCC1)C2`, the RP-LC retention time turned out to be 877 s.

In turn, `CCN1C(=O)S/C(=C\C(=O)O)C1=O` returned an RP-LC retention time of 638 s.

Regarding `Cc1ccc(NS(=O)(=O)c2cc3c(=O)n(C)ncn3c2)cc1C`, the RP-LC retention time came out at 849 s.

Take `COc1ccc(NC(=O)c2cn3c(n2)CSCC3)cc1F`: the RP-LC retention time was 694 s.

`Cc1ccc(C)c(C2=NC3(CCN(C(C)C)CC3)NC(c3cc(Cl)ccc3O)C2)c1` (stereo not given) gave an RP-LC retention time of 679 s.

In turn, `Cc1csc(COc2ccc(C(=O)NC(C)CCc3ccccc3)cc2)n1` (stereo not given) registered an RP-LC retention time of 595 s.

Take `Cc1cccc(NC(=O)Cn2ccc3ccn(C)c3c2=O)c1C`: the RP-LC retention time worked out at 761 s.

As to `CC1(CNC(=O)c2ccc(Br)cc2)CCOCC1`, the RP-LC retention time came out at 784 s.

Turning to `CCCNC(=O)C1CCCN(c2nc3ncn(CC(=O)NC4CCc5ccccc54)c(=O)c3s2)C1` (stereo not given), the RP-LC retention time was found to be 709 s.

Turning to `Cc1cc(OCC(=O)Nc2ccnn2Cc2cccs2)ccc1Cl`, the RP-LC retention time turned out to be 913 s.

In the case of `Cc1ccc(-n2nc(N3CCN(C(=O)Nc4ccccc4C)CC3)ccc2=O)cc1`, the RP-LC retention time amounted to 787 s.

`CCC(=O)N1CCc2cc(N3CC(C(=O)NC(C)C)CC3=O)ccc21` (stereo not given) yielded an RP-LC retention time of 647 s.

As for `COc1ccc(N/C=C2\C(=O)CCc3c2oc2cc(Cl)c(O)c(Cl)c32)cc1`, the RP-LC retention time was 1170 s.

The molecule `CCc1noc(NC(C)=O)c1-c1ccc(OC)c(S(=O)(=O)Nc2ccc(OC)c(Cl)c2)c1` registered an RP-LC retention time of 775 s.

`Fc1ccccc1-c1nc(-c2cn(-c3ccccc3)nn2)no1` had an RP-LC retention time of 1230 s.

`CC1CCCCN1CCNC(=O)c1c2c(cn(-c3ccc(F)cc3)c1=O)C(=O)CC(C)(C)C2` (stereo not given) showed an RP-LC retention time of 675 s.

Molecule `CNC(=O)c1csc2c1CCCCC2` came in with an RP-LC retention time of 787 s.

`CCOC(=O)C1=C(CN2CCN(c3ccccn3)CC2)NC(=O)NC1c1ccccc1` (stereo not given) showed an RP-LC retention time of 596 s.

As for `CCC(CC)C(=O)N1CCN(c2nc3cccnc3n(CC)c2=O)CC1`, the RP-LC retention time worked out at 942 s.

`Cc1ccc(CC(=O)NC2CCN(c3cc(-c4cccs4)[nH]n3)C2)cc1` (stereo not given) had an RP-LC retention time of 732 s.

On to `COc1ccc(CN(C(=O)c2oc3ccccc3c2C)C2CCS(=O)(=O)C2)cc1OC` (stereo not given), for which the RP-LC retention time stood at 826 s.

Take `COCCNS(=O)(=O)c1cc(-c2nc(C)cs2)n(CC(=O)N2CCCCC2)c1`: the RP-LC retention time was found to be 755 s.

As to `O=C([C@@H]1C[C@H](Oc2cccnc2)CN1C(=O)c1cnccn1)N1CCCC1`, the RP-LC retention time amounted to 552 s.

`O=C(C1CCN(c2cnc3nccnc3c2)CC1)N1CCN(c2cccc(Cl)c2)CC1` showed an RP-LC retention time of 833 s.

The molecule `COc1ccc(NC(=O)Cn2nc3c4sc(N(C)C)nc4ncn3c2=O)cc1` displayed an RP-LC retention time of 1410 s.

In turn, `CCc1ccccc1NC(=O)Cn1c(=O)nc(N2CCC(C)CC2)c2ccccc21` gave an RP-LC retention time of 898 s.

`Cn1c(=O)n(C)c2cc(S(=O)(=O)NCC(=O)O)ccc21` came in with an RP-LC retention time of 566 s.
